#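 Test compounds were applied to cells in 96-well plates for 48 hours at 5 doses. TGI: total growth inhibition.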
# Tests used:
# Test in all cases: NCI anticancer screen, dose series, 48 h
# [1] = test system: HOP-62 NSCLC
# [2] = test system: HS 578T breast
# [3] = test system: UACC-257 melanoma
# [4] = test system: K-562 leukemia
# [5] = test system: SF-268 CNS
# [6] = test system: 786-0 renal
# [7] = test system: COLO 205 colon
# [8] = test system: MOLT-4 leukemia
# [9] = test system: NCI-H23 lung
# [10] = test system: RPMI-8226 leukemia
# [11] = test system: KM12 colon
# [12] = test system: HCC-2998 colon
# [13] = test system: T-47D breast
# [14] = test system: NCI/ADR-RES ovarian
# [15] = test system: HT29 colon
# [16] = test system: MDA-MB-435
# [17] = test system: OVCAR-5 ovarian
# [18] = test system: PC-3 prostate
# [19] = test system: MDA-N
# [20] = test system: SF-539 CNS
# [21] = test system: LOX IMVI melanoma
# [22] = test system: UO-31 renal
# [23] = test system: ACHN renal
# [24] = test system: HOP-92 NSCLC
# [25] = test system: HCT-116 colon
# [26] = test system: IGROV1 ovarian
# [27] = test system: OVCAR-3 ovarian
# [28] = test system: SN12C renal
# [29] = test system: SK-MEL-5 melanoma
# [30] = test system: NCI-H226 lung
# [31] = test system: HL-60(TB) leukemia
# [32] = test system: U251 CNS
# [33] = test system: MALME-3M melanoma
# [34] = test system: M14 melanoma
# [35] = test system: SR leukemia
# [36] = test system: MDA-MB-231 breast
# [37] = test system: SNB-75 CNS
# [38] = test system: TK-10 renal
# [39] = test system: MCF7 breast
# [40] = test system: SK-MEL-28 melanoma
# [41] = test system: UACC-62 melanoma
# [42] = test system: A549 NSCLC
# [43] = test system: SK-OV-3 ovarian
# [44] = test system: NCI-H460 lung
# [45] = test system: CCRF-CEM leukemia
# [46] = test system: SW-620 colon
# [47] = test system: DU-145 prostate
# [48] = test system: HCT-15 colon
# [49] = test system: OVCAR-8 ovarian
# [50] = test system: SF-295 CNS
# [51] = test system: OVCAR-4 ovarian
# [52] = test system: SK-MEL-2 melanoma
# [53] = test system: EKVX NSCLC
# [54] = test system: CAKI-1 renal
# [55] = test system: SNB-19 CNS
# [56] = test system: NCI-H522 lung
# [57] = test system: RXF 393 renal
# [58] = test system: A498 renal
# [59] = test system: BT-549 breast
smiles,measurement,setting,value
CCN(CC)CCOCCn1c2c(c3ccccc31)CCCC2,TGI,[1],31.5 µM
same,TGI,[2],56.5 µM
same,TGI,[3],48.7 µM
same,TGI,[4],30.2 µM
same,TGI,[5],> 100 µM
same,TGI,[6],30 µM
same,TGI,[7],39.1 µM
same,TGI,[8],35.5 µM
same,TGI,[9],> 100 µM
same,TGI,[10],51.1 µM
same,TGI,[11],> 100 µM
same,TGI,[12],31 µM
same,TGI,[13],52.9 µM
same,TGI,[14],33.3 µM
same,TGI,[15],90.2 µM
same,TGI,[16],32.7 µM
same,TGI,[17],41.3 µM
same,TGI,[18],59.5 µM
same,TGI,[19],31.1 µM
same,TGI,[20],32 µM
same,TGI,[21],37.3 µM
same,TGI,[22],36.8 µM
same,TGI,[23],41.9 µM
same,TGI,[24],68.9 µM
same,TGI,[25],29.4 µM
same,TGI,[26],60 µM
same,TGI,[27],> 100 µM
same,TGI,[28],35.5 µM
same,TGI,[29],26.3 µM
same,TGI,[30],55.2 µM
same,TGI,[31],24.6 µM
same,TGI,[32],49.3 µM
same,TGI,[33],29.3 µM
same,TGI,[34],31.3 µM
same,TGI,[35],35.5 µM
same,TGI,[36],35.1 µM
same,TGI,[37],> 100 µM
same,TGI,[38],38.5 µM
same,TGI,[39],35.2 µM
same,TGI,[40],40 µM
same,TGI,[41],32.4 µM
same,TGI,[42],72.2 µM
same,TGI,[43],86.3 µM
same,TGI,[44],39.1 µM
same,TGI,[45],50.9 µM
same,TGI,[46],36.8 µM
same,TGI,[47],91.1 µM
same,TGI,[48],34.5 µM
same,TGI,[49],> 100 µM
same,TGI,[50],> 100 µM
same,TGI,[51],> 100 µM
same,TGI,[52],29.6 µM
same,TGI,[53],> 100 µM
c1cc2ccc3cc4ncccc4c4ccc(c1)c2c34,TGI,[1],> 100 µM
same,TGI,[2],> 100 µM
same,TGI,[3],> 100 µM
same,TGI,[4],> 100 µM
same,TGI,[5],> 100 µM
same,TGI,[6],> 100 µM
same,TGI,[7],> 100 µM
same,TGI,[8],> 100 µM
same,TGI,[9],> 100 µM
same,TGI,[10],88.3 µM
same,TGI,[54],> 100 µM
same,TGI,[11],> 100 µM
same,TGI,[12],> 100 µM
same,TGI,[13],> 100 µM
same,TGI,[14],> 100 µM
same,TGI,[15],> 100 µM
same,TGI,[16],> 100 µM
same,TGI,[17],> 100 µM
same,TGI,[18],> 100 µM
same,TGI,[19],> 100 µM
same,TGI,[20],> 100 µM
same,TGI,[21],> 100 µM
same,TGI,[22],40.2 µM
same,TGI,[23],31.6 µM
same,TGI,[24],> 100 µM
same,TGI,[25],> 100 µM
same,TGI,[26],25 µM
same,TGI,[27],> 100 µM
same,TGI,[28],> 100 µM
same,TGI,[30],> 100 µM
same,TGI,[31],> 100 µM
same,TGI,[55],> 100 µM
same,TGI,[32],> 100 µM
same,TGI,[33],> 100 µM
same,TGI,[34],> 100 µM
same,TGI,[35],> 100 µM
same,TGI,[56],> 100 µM
same,TGI,[36],> 100 µM
same,TGI,[37],> 100 µM
same,TGI,[38],> 100 µM
same,TGI,[39],> 100 µM
same,TGI,[40],> 100 µM
same,TGI,[41],> 100 µM
same,TGI,[42],> 100 µM
same,TGI,[43],> 100 µM
same,TGI,[44],> 100 µM
same,TGI,[45],> 100 µM
same,TGI,[46],> 100 µM
same,TGI,[47],> 100 µM
same,TGI,[48],> 100 µM
same,TGI,[49],67.4 µM
same,TGI,[57],> 100 µM
same,TGI,[50],> 100 µM
same,TGI,[52],77 µM
same,TGI,[53],> 100 µM
CC(C)(C)OC(=O)N1CC(O)O[C@H](c2ccccc2)[C@@H]1c1ccccc1 (stereo partly specified),TGI,[1],31.2 µM
same,TGI,[2],> 100 µM
same,TGI,[3],35.3 µM
same,TGI,[4],> 100 µM
same,TGI,[5],77.6 µM
same,TGI,[6],62.1 µM
same,TGI,[7],97.4 µM
same,TGI,[8],97.5 µM
same,TGI,[9],29.5 µM
same,TGI,[10],> 100 µM
same,TGI,[54],> 100 µM
same,TGI,[11],42 µM
same,TGI,[58],40.7 µM
same,TGI,[13],> 100 µM
same,TGI,[14],> 100 µM
same,TGI,[15],39.3 µM
same,TGI,[16],32.2 µM
same,TGI,[17],32.3 µM
same,TGI,[18],27.8 µM
same,TGI,[19],59.5 µM
same,TGI,[21],> 100 µM
same,TGI,[22],31.4 µM
same,TGI,[24],36.1 µM
same,TGI,[25],> 100 µM
same,TGI,[26],40.4 µM
same,TGI,[27],30.2 µM
same,TGI,[28],> 100 µM
same,TGI,[29],> 100 µM
same,TGI,[30],45.7 µM
same,TGI,[55],29.1 µM
same,TGI,[32],33.4 µM
same,TGI,[33],43.2 µM
same,TGI,[34],30.2 µM
same,TGI,[35],62.8 µM
same,TGI,[56],45.6 µM
same,TGI,[36],67.6 µM
same,TGI,[37],70.2 µM
same,TGI,[38],33.1 µM
same,TGI,[59],36.4 µM
same,TGI,[40],35.2 µM
same,TGI,[41],28.1 µM
same,TGI,[42],39.5 µM
same,TGI,[43],36.6 µM
same,TGI,[45],48.4 µM
same,TGI,[46],32.8 µM
same,TGI,[47],53.8 µM
same,TGI,[48],33.9 µM
same,TGI,[49],> 100 µM
same,TGI,[57],30 µM
same,TGI,[50],30.1 µM
same,TGI,[51],36.2 µM
same,TGI,[52],28.4 µM
same,TGI,[53],40.9 µM

# From PubChem BioAssay (NCI)
